Read-outs that look alike come from different tables or passages of the source.
Assay: Phase 1 single ascending dose study, plasma pharmacokinetics
Type: in vivo, human
Settings: for AUClast/D / Cmax/D / AUC∞/D / CL/F / λz / AUC(0-t) / Cmax / AUC(0-inf) / MRT / Vd/F: geometric mean; for AUC(0-t): po; for Vd/F: read-out: Vz/F
Experimental: Single-center, randomized, double-blind, placebo-controlled, single ascending dose (SAD) study.
Screening examinations were performed within 28 days prior to dosing. Eligible subjects returned to the study center in the morning of Day-1 and remained in-patient until discharge at 72 hours after dosing (morning of Day 4) if there were no safety issues. The oral dose was administered in the morning of Day 1. Subjects returned to the clinic 7 days after treatment, in the morning of Day 8 (±1 day), for the safety assessments.
Healthy male non-smoking subjects, between 18 and 50 years of age inclusive, with a body mass index (BMI) between 18.5 and 29.9 kg/m^2 inclusive. Cohorts of 8 subjects per dose step were planned. Cohort 1 (10 mg or placebo) was stopped after dosing of 4 subjects. Cohorts 2 to 4 consisted of 8 subjects each, i.e., a total number of 28 subjects were randomized and completed the study. There were no withdrawals.
HM01 HCl powder in gelatine capsules. Capsules with the strength of 0.1 mg and 1.0 mg and 10 mg for cohort 1 were available. • Cohort 1:10 mg HM01 • Cohort 2:0.1 mg HM01 Cohort 3:0.3 mg HM01 Cohort 4:1.0 mg HM01
Subjects were dosed in a fasted state (no food for at least 8 hours). Access to food was restricted until 4 hours after dosing. Capsules were administered orally together with 240 mL water.
Blood samples for analytical assay of HM01 and the 3 major metabolites (M2, M6 and M9) were collected at pre-dose (within 60 minutes prior to drug administration), and at 0.25, 0.5, 1, 1.5, 2, 3, 4, 6, 8, 12, 16, 24, 30, 36, 48, 60 and 72 hours post dose (18 samples). Urine was collected for 24 hours after dosing. Blood and urine samples were analyzed for HM01 and its metabolites concentrations using validated LC-MS/MS methods.
PK parameters estimated included Cmax (maximum observed concentration), Cmax/D (Cmax per dose unit), tmax (peak time), Clast (last measurable concentration above the lower limit of quantification), tlast (time of Clast), AUC(0-24) and AUClast (area under the plasma concentration-time curve from time zero to 24 hours and to the last measurable concentration, tlast, respectively), AUClast/D (AUClast per dose unit), AUC∞(area under the plasma concentration-time curve from time zero to infinity), AUC∞(/D (AUC∞ per dose unit), t1/2 (apparent terminal half-life), CL/F (systemic clearance after extravascular administration, only for the parent drug), Vz/F (apparent volume of distribution after extravascular administration, only for the parent drug), MRT (mean residence time).

[1] = 0.1 mg HM01 single oral dose, N = 6
[2] = 0.3 mg HM01 single oral dose, N = 6
[3] = 0.3 mg HM01 single oral dose, n = 5
[4] = 1.0 mg HM01 single oral dose, N = 6
[5] = 10 mg HM01 single oral dose, N = 3
[6] = male, human, plasma, 0.3 mg HM01 single oral dose, n = 5
[7] = male, human, plasma, 1.0 mg HM01 single oral dose, N = 6
[8] = male, human, plasma, 10 mg HM01 single oral dose, N = 3

AUClast/D [1]: 4.899 (h * ng/mL)/mg
Cmax/D [1]: 1.357 (ng/mL)/mg
tlast (0.1 mg HM01 single oral dose, N = 6, median): 8.00 h
AUClast/D [2]: 9.396 (h * ng/mL)/mg
Cmax/D [2]: 0.9554 (ng/mL)/mg
tlast (0.3 mg HM01 single oral dose, N = 6, median): 16.00 h
AUC∞/D [3]: 15.19 (h * ng/mL)/mg
CL/F [3]: 65.8 L/h
λz [3]: 0.0821 h⁻¹
AUClast/D [4]: 14.71 (h * ng/mL)/mg
AUC∞/D [4]: 16.94 (h * ng/mL)/mg
CL/F [4]: 59.0 L/h
Cmax/D [4]: 1.280 (ng/mL)/mg
λz [4]: 0.0648 h⁻¹
tlast (1.0 mg HM01 single oral dose, N = 6, median): 36.00 h
AUClast/D [5]: 17.61 (h * ng/mL)/mg
AUC∞/D [5]: 17.88 (h * ng/mL)/mg
CL/F [5]: 55.9 L/h
Cmax/D [5]: 1.528 (ng/mL)/mg
λz [5]: 0.0646 h⁻¹
tlast (10 mg HM01 single oral dose, N = 3, median): 72.00 h
half-life (male, human, plasma, oral, similar for all doses, read-out: arithmetic mean half-life of HM01): 9 to 11 h
clearance (male, human, plasma, oral, similar for all doses, read-out: geometric mean clearance of HM01): 932 to 1100 mL/min
Tmax (male, human, plasma, oral, similar for all doses, read-out: median tmax of HM01): 3 to 4 h
apparent volume of distribution (Vz/F) (male, human, plasma, oral, similar for all doses, read-out: volume of distribution of HM01): 801 to 911 L
AUC(0-t) (male, human, plasma, 0.1 mg, 0.1 mg HM01 single oral dose, fasted healthy males, N = 6, read-out: AUClast): 0.49 ng·h/mL
AUC(0-t) (male, human, plasma, 0.3 mg, 0.3 mg HM01 single oral dose, N = 6, read-out: AUClast): 2.82 ng·h/mL
AUC(0-t) (male, human, plasma, 0.3 mg, 0.3 mg HM01 single oral dose, fasted healthy males, N = 6, read-out: AUC0-24h): 3.75 ng·h/mL
AUC(0-t) (male, human, plasma, 1 mg, 1.0 mg HM01 single oral dose, N = 6, read-out: AUClast): 14.7 ng·h/mL
AUC(0-t) (male, human, plasma, 1 mg, 1.0 mg HM01 single oral dose, fasted healthy males, N = 6, read-out: AUC0-24h): 13.4 ng·h/mL
AUC(0-t) (male, human, plasma, 10 mg, 10 mg HM01 single oral dose, N = 3, read-out: AUClast): 176 ng·h/mL
AUC(0-t) (male, human, plasma, 10 mg, 10 mg HM01 single oral dose, fasted healthy males, N = 3, read-out: AUC0-24h): 149 ng·h/mL
Cmax (male, human, plasma, 0.1 mg HM01 single oral dose, N = 6): 0.136 ng/mL
Tmax (male, human, plasma, 0.1 mg HM01 single oral dose, N = 6, median, read-out: tmax): 3 h
Cmax (male, human, plasma, 0.3 mg HM01 single oral dose, N = 6): 0.287 ng/mL
Tmax (male, human, plasma, 0.3 mg HM01 single oral dose, N = 6, median, read-out: tmax): 4 h
half-life (male, human, plasma, 0.3 mg HM01 single oral dose, n = 5, arithmetic mean, read-out: t1/2 (converted)): 8.83 h
AUC(0-inf) [6]: 4.56 ng·h/mL
MRT [6]: 14.4 h
Vd/F [6]: 801 L
half-life (male, human, plasma, 1.0 mg HM01 single oral dose, N = 6, arithmetic mean, read-out: t1/2 (converted)): 11 h
AUC(0-inf) [7]: 16.9 ng·h/mL
Cmax [7]: 1.28 ng/mL
MRT [7]: 15.3 h
Vd/F [7]: 911 L
Tmax (male, human, plasma, 1.0 mg HM01 single oral dose, N = 6, median, read-out: tmax): 4 h
half-life (male, human, plasma, 10 mg HM01 single oral dose, N = 3, arithmetic mean, read-out: t1/2 (converted)): 10.9 h
AUC(0-inf) [8]: 179 ng·h/mL
Cmax [8]: 15.3 ng/mL
MRT [8]: 14.2 h
Vd/F [8]: 866 L
Tmax (male, human, plasma, 10 mg HM01 single oral dose, N = 3, median, read-out: tmax): 3 h
dose dependence of AUC∞ (single oral doses of HM01): dose proportional increase
dose dependence of max (single oral doses of HM01): dose proportional increase
Compound: COc1ccc([C@H](C)NC(=O)N(C)[C@@H]2CCN(C)CC2(C)C)c(Cl)c1Cl.Cl [AC01/HM01, 1-[(1S)-1-(2,3-dichloro-4-methoxyphenyl)ethyl]-3-methyl-3-[(4R)-1-methyl-3,3-dimethyl-4-piperidyl]-urea]
